Patent publication US20250052754A1, “COMPOSITIONS AND METHODS FOR DIAGNOSIS, TREATMENT OF AND PREVENTION OF KIDNEY DISEASE” (XORTX THERAPEUTICS, INC., priority 2021, published 2025)
In brackets after ≈: the same amount, converted by molar mass.

What was measured:
[1] = oxypurinol solubility with and without metformin; format: physicochemical
Description: The term “organic base” as used herein refers to the organic base may be (a) a Class 1 base with a pKa1 between about 7 to 13 including but not limited to L-arginine, D-arginine, choline, L-lysine, D-lysine, and caffeine. In an alternative embodiment, the organic base is a biguanide (U.S. Pat. No. 9,480,663) or biguanidine such as metformin, phenformin, buformin or a salts thereof. It is noted that metformin has multiple beneficial effects in the context of compositions and methods described herein. First, it can act as a solubilizing agent for oxypurinol to increase oral bioavailablity. Secondarily, it can act as an alkalinizing agent. Thirdly, metformin here can act as a uric acid solubilizing agent. […] The gliflozin family of SGLT2 inhibitors are also basic and can serve as an organic base in accord with the teachings herein.

[2] = system: rodent model of polycystic kidney disease; experiment: uricase inhibition by oxonic acid, kidney function in rodent model of polycystic kidney disease (FIG. 7); format: in vivo
[3] = system: rat model of polycystic kidney disease (PCK); experiment: uricase inhibition by oxonic acid in rat model of polycystic kidney disease (FIG. 6A); format: in vivo
Protocol: (§1) FIG. 6: provides data showing that uricase inhibition by oxonic acid (OXO) and commensurate increased uric acid is associated with increased total kidney to body weight ratio (2K/BWT) in a rat model of polycystic kidney disease (PCK) and in a mouse model of polycystic kidney disease (Pkd1RC/RC). Rodent models of polycystic kidney disease were treated with a uricase enzyme inhibitor—oxonic acid (OXO)—to decrease the metabolism of uric acid to allantoin, thereby chronically increasing circulating serum uric acid concentration. […] Increased serum uric acid is associated with structural and functional changes in kidney function. Increased creatinine is associated with decreased filtering capacity of kidneys. disease.

[4] = system: mouse model of polycystic kidney disease (Pkd1RC/RC); experiment: uricase inhibition by oxonic acid in mouse model of polycystic kidney disease (FIG. 6B); format: in vivo
Protocol: as §1

[5] = system: rodent model of polycystic kidney disease—mouse RC/RC; experiment: oxonic acid exposure with or without OXY+L in mouse RC/RC, kidney size (FIG. 9); format: in vivo; details: oxonic acid (OXO) exposure alone
Description: FIG. 9: is a graph showing that in a rodent model of polycystic kidney disease—mouse RC/RC-oxonic acid (OXO) exposure increased kidney size.

[6] = 8 weeks of treatment with oxonic acid, compared to untreated animals
[7] = PCK rat, after 70 days exposure to oxonic acid, P<0.05
[8] = Pkd1RC/RC mouse, after 70 days exposure to oxonic acid, P<0.05

Compound	solubility ([1]; 1:01 to 1:10 ratio of oxypurinol to metformin) [µg/mL]	solubility ([1]; without metformin (starting value)) [µg/mL]	creatinine in serum (kidney function) [2]	total kidney volume [3, 6]	serum uric acid ([3]; PCK rat, after 70 days exposure to oxonic acid)	cyst size [3, 7]	total kidney to body weight ratio (2K/BWT) [3, 7]	serum creatinine ([3]; PCK rat, after 70 days exposure to oxonic acid, P<0.07)	total kidney volume [4, 6]	serum uric acid ([4]; Pkd1RC/RC mouse, after 70 days exposure to oxonic acid)	cyst size [4, 8]	serum creatinine [4, 8]	total kidney to body weight ratio (2K/BWT) [4, 8]	kidney size [5]
O=c1[nH]c(=O)c2c[nH]nc2[nH]1 [oxypurinol]	≥ 16800	200 (≈ 1310 µM)	–	–	–	–	–	–	–	–	–	–	–	–
O=C(O)c1nc(=O)[nH]c(=O)[nH]1 [oxonic acid]	–	–	increased	increased significantly	increased	increased	increase	increased	increased significantly	increased	increased	increased	increase	increased
